Earlier results on one substance are cited in US6346511B1, “Pharmaceutical composition comprising cyclosporin” (Panacea Biotec Limited, priority 1997, dated 2002).

The test system of the data set is normal epithelial tissue and Peyer's patch tissue of guinea pigs. Conditions: in vitro, compared to the commercially available drinking solution.

Consider Choleic acid, for which the “factor by which absorption of Cyclosporine was raised” value is recorded as 5-6.
